{"source": "patent US20080207533A1", "about": "“Pharmaceutical Compositions” (priority 2005, published 2008)", "experiment": "Degradation (hydrolysis) of Compound I after wet granulation with water", "type": "physicochemical", "settings": "granulation liquid deionized water; LOD value less than or equal to about 1% for the dried granulate", "experimental": "Once blended, a granulation liquid, deionized water, is added for wet kneading. The impeller and chopper speeds are increased to setting 2 (e.g., 306 rpm and 500 rpm, respectively, for the impeller and chopper). The kneading is conducted at room temperature. After granulation, the moist granulates are dried in a fluid-bed dryer with an air inlet temperature of approximately 70° C. to obtain granulates. The moist granulates are dried such that there is a LOD value below 1.0%. The granulates are subsequently sieved using a screen with a mesh size of 1.25 mm or 0.8 mm. As mentioned above, Compound I is a salt of an ester which is potentially sensitive to hydrolysis in the presence of water.", "note": "Counter-ions that a name gives are not always drawn.", "data": [{"smiles": "CC(C)[C@H](N)C(=O)O[C@@H]1[C@@H](CO)O[C@@H](n2ccc(N)nc2=O)[C@]1(C)O", "note": "[Compound I, dihydrochloride salt]", "values": [{"measurement": "degradation, e.g., due to hydrolysis, after wet granulation", "value": "does not result in an increase in degradation"}]}]}
